The values that follow come from patent US20210267929A1, “COMPOSITIONS AND METHODS FOR TREATMENT OF ORAL ULCERATION AND ORAL MUCOSITIS” (CelaCare Technologies, Inc., priority 2018, published 2021).

Series [1] is classed as cell-based. On the procedure:
The product has been evaluated for cytotoxicity and deemed to be non-cytotoxic using a standard protocol at a GLP laboratory. […] A safety study for acemannan in humans was conducted to evaluate its effect in the treatment of oral aphthous ulcers. The initial study of 50 healthy patients received 0.5% acemannan incorporated into a Carbopol thickener applied to the oral mucosa of the lower lip three times a day for 7 days. Oral exams and kidney and liver function were evaluated prior to and at the end of the study. […] Since the present compositions are utilized as an oral rinse, acemannan is not expected to be absorbed systemically through the mucosa and will merely coat the patients' mouths. Acemannan has also previously been cleared to market in oral device products. Based on current safety data on the ingredients incorporated into the compositions and the 14-day duration of use for patients in the study, the compositions will not provide significant patient risks when dosed as intended.

In a further series the test system is healthy patients. To be noted: in vivo; cited from earlier work.
Series [2] has as its system Candida albicans ATCC 24433. The series is described as follows: Broth microdilution MIC (CLSI M27), oral rinses, silver API and controls. Type of series: cell-based. The note with it: 35° C., 24 hours, at least 50% OD530 inhibition; for MIC: ATCC24433, CLSI M27, RPMI, read-out: MIC (mg/L) Mean. On the procedure:
(§1) This experiment tested two examples of the oral rinse in the treatment of three different Candida organisms associated with oral mucositis. The embodiments of the Oral Rinses tested in this experiment were: • Oral Rinse 170915-10 μg/mL silver citrate complex, 4 mg/mL acemannan, 5 mg/mL Disodium EDTA, 0.1 mg/mL Hyaluronic acid, 2 mg/mL PVP, 5.75 mg/ml of masking and cherry flavor, purified water, pH adjustment with tris(hydroxymethyl)aminomethane to a pH of 6.36. • Oral Rinse 170719-8 μg/mL silver citrate complex, 3.9 mg/mL acemannan, 5 mg/mL Disodium EDTA, 0.1 mg/mL Hyaluronic acid, 2 mg/mL PVP, 5.75 mg/ml of masking agent and cherry flavor, purified water, pH adjustment with tris(hydroxymethyl)aminomethane to a pH of 6.38.
(§2) The antimicrobial activity of two oral rinse solutions as described above, Example 2, was tested using the microtube dilution method described in the Clinical and Laboratory Standards Institute (CLSI) Reference Method for Broth Dilution Antifungal Susceptibility Testing of Yeasts, M27-4. In brief, a standard inoculum of each microorganism was prepared by diluting a 0.5 MacFarland turbidity standard of the microorganism 1:100 in RPMI media without sodium bicarbonate. Then, 100 μL of the standard inoculum was added to equal volumes of two-fold serial dilutions of the silver API (active pharmaceutical ingredient, silver citrate complex), controls, or the oral rinse solution, and the plates were incubated at 35° C. for 24 hours. MICs were determined photometrically as the lowest antimicrobial agent concentration (last well in the dilution series) that inhibited OD530 absorbance at least 50%. Each experiment was performed three times, with each antimicrobial agent tested in duplicate or triplicate.
Background: Broth dilution looks for growth in wells or tubes with falling amounts of substance.

The test system of series [3] is Candida parapsilosis ATCC 22019. Described as above. Type of series: cell-based. The note with it: 35° C., 24 hours, at least 50% OD530 inhibition; for MIC: Lodderomyces parapsilosis, ATCC22019, CLSI M27, RPMI, read-out: MIC (mg/L) Mean. As to the method: as §1, §2
The subject of series [4] is Issatchenkia orientalis ATCC 5258 (formerly known as Candida krusei). Described as above. The class given is cell-based. To be noted: 35° C., 24 hours, at least 50% OD530 inhibition; for MIC: Pichia kudriavzevii, ATCC5258, CLSI M27, RPMI, read-out: MIC (mg/L) Mean. On the procedure: as §1, §2
Series [5] has as its system Candida parapsilosis ATCC 22019. The note with it: expected control range; cited from earlier work.
Series [6] concerns Candida glabrata ATCC 15126. The series is described as follows: Broth microdilution MIC (EUCAST), oral rinse vs marketed antifungals. The class given is cell-based. The note with it: 35° C., 48 hours, at least 50% OD530 inhibition; for MIC: Nakaseomyces glabratus, ATCC15126, RPMI + 2% glucose, read-out: MIC (mg/L) Mean. An excerpt:
(§3) The purpose of this experiment was to determine the potency of one embodiment of the oral rinse on different Candida species, namely Candida albicansATCC 10231 and ATCC 24433, Candida glabrataATCC 15126, Candida krusei (Issechenkia orientalis)ATCC 6258, Candida parapsilosisATCC 22019, and Candida tropicalisATCC 1369, to determine the minimum inhibitory concentration (MIC) of the oral rinse on each species. The oral rinse was compared to current antifungal treatments on the market.
(§4) The embodiment of the oral rinse 150528 tested in this experiment included 10 μg/mL silver citrate complex, 3 mg/mL acemannan, 5 mg/mL Disodium EDTA, 0.1 mg/mL Hyaluronic acid, 2 mg/mL PVP, 3.5 mg/ml of masking and cherry flavor, purified water, pH adjustment with tris(hydroxymethyl)aminomethane to a pH of 6.59. The current antifungal treatments that were tested and compared were Fluconazole (Sigma-Aldrich, Cat: PHR1160-1G, Lot LRAA6502) a Nystatin suspension (Sigma-Aldrich, Cat: N6261-SMU, Lot 020M13491V), and Gentian Violet (1% Humco, Cat: NDC 0395-1003-92, Lot547845).
(§5) The antimicrobial activity of the oral rinse solution as described above, Example 1, was tested using the micro-tube dilution method described in the Method for Determination of Broth Dilution MICs of Antifungal agents for fermentative yeasts, published by the European Committee for Antimicrobial Susceptibility Testing (EUCAST). In brief, a standard inoculum of each microorganism was prepared by diluting a 0.5 MacFarland turbidity standard of the microorganism 1:100 in RPMI media without sodium bicarbonate plus 2% glucose. Then, 100 μL of the standard inoculum was added to equal volumes of two-fold serial dilutions of the oral rinse solution or controls, and the plates were incubated at 35° C. for 48 hours. MICs were determined photometrically as the lowest antimicrobial agent concentration (last well in the dilution series) that inhibited OD530 absorbance at least 50%. Each experiment was performed three times, with each antimicrobial agent tested in duplicate or triplicate.

In series [7] the test system is Candida albicans ATCC 24433. Described as above. The class given is cell-based. The note with it: 35° C., 48 hours, at least 50% OD530 inhibition; for MIC: ATCC24433, RPMI + 2% glucose, read-out: MIC (mg/L) Mean.
Excerpt: as §3, §4, §5

Series [8] deals with Candida parapsilosis ATCC 22019. The description is as above. Type of series: cell-based. To be noted: 35° C., 48 hours, at least 50% OD530 inhibition; for MIC: Lodderomyces parapsilosis, ATCC22019, RPMI + 2% glucose, read-out: MIC (mg/L) Mean.
Excerpt: as §3, §4, §5

Series [9] deals with Issatchenkia orientalis ATCC 6258 (formerly known as Candida krusei). The description is as above. The note with it: 35° C., 48 hours, at least 50% OD530 inhibition; for MIC: Pichia kudriavzevii, ATCC6258, RPMI + 2% glucose, read-out: MIC (mg/L) Mean. The class given is cell-based.
Excerpt: as §3, §4, §5

In series [10] the test system is Candida tropicalis ATCC 1369. The description is as above. The class given is cell-based. To be noted: 35° C., 48 hours, at least 50% OD530 inhibition; for MIC: ATCC1369, RPMI + 2% glucose, read-out: MIC (mg/L) Mean.
Excerpt: as §3, §4, §5

The test system of series [11] is Candida albicans ATCC 10231. The description is as above. The class given is cell-based. To be noted: 35° C., 48 hours, at least 50% OD530 inhibition; for MIC: ATCC10231, RPMI + 2% glucose, read-out: MIC (mg/L) Mean.
Excerpt: as §3, §4, §5

Series [12] concerns Issatchenkia orientalis ATCC 5258 (formerly known as Candida krusei). To be noted: expected control range; cited from earlier work.
In series [13] the test system is Staphylococcus aureus ATCC 29213. As to the kind of experiment: Microtube dilution MIC (CLSI M07), oral rinses vs vancomycin. The class given is cell-based. To be noted: ATCC29213, read-out: MIC (mg/L) Mean. An excerpt:
The purpose of this experiment was to determine the potency of one embodiment of the oral rinse on three common gram-positive cocci species tested: Staphylococcus aureus, Streptococcus pneumoniae, Streptococcus pyogenes by determining the minimal inhibitory concentrations (MIC) of the oral rinse on each species. The oral rinse was compared to vancomycin, a common antibiotic used to treat various infections.
The embodiment of the oral rinses (170915 and 171003) tested in this experiment included 10 ug/mL silver citrate complex, 4 mg/mL acemannan, 5 mg/mL Disodium EDTA, 0.1 mg/mL Hyaluronic acid, 2 mg/mL PVP, […] of masking and cherry flavor, purified water, and pH adjustment with tris(hydroxymethyl)aminomethane to a pH of 6.36 and pH of 6.40, respectively. The vancomycin control (Sigma-Aldrich, Cat: PHR1160-1G, Lot LRAA9717, 5120 ppm) was reconstituted 20.5 mg/4 mL RO water.
The antimicrobial activity of this embodiment of the oral rinse solution was tested using the microtube dilution method for determining minimal inhibitory concentrations (MIC) described in the Clinical and Laboratory Standards (CLSI) Methods for Dilution Antimicrobial Susceptibility Tests for Bacteria that Grow Aerobically, M07, 11th ed, Approved January 2018. […]

Series [14] has as its system Streptococcus pneumoniae ATCC 49619. To be noted: expected control range; cited from earlier work.
Series [15] deals with Staphylococcus aureus ATCC 29213. The note with it: expected control range; cited from earlier work.
For series [16] the following is noted: estimated from animal studies in mice, rats, dogs, and monkeys; cited from earlier work.
For series [17] the following is noted: total body contents from past cases; cited from earlier work.
For series [18] the following is noted: according to the EPA; cited from earlier work.

Values after ≈ are worked out from the molar mass of the structure shown.

Consider acemannan, for which the cytotoxicity result in series [1] is given as “non-cytotoxic”. Moreover, in the series on healthy patients, the “adverse effects or allergic reactions” value was “No patients reported adverse effects or allergic reactions”; the “pre- versus post-test blood values (kidney and liver function)” value was “no statistical difference”.

Take `OC(Cn1cncn1)(Cn1cncn1)c1ccc(F)cc1F` [Fluconazole]: the MIC amounted to 0.583 mg/L (≈ 1.9 µM) in [2]; 1.67 mg/L (≈ 5.44 µM) in [3]; 14.7 mg/L (≈ 47.9 µM) in series [4]; 7.3 mg/L in series [6]; 0.5 mg/L in series [7]; 1.2 mg/L in series [8]. The MIC in [9] is 24 mg/L; in series [10], 0.5 mg/L; in series [11], 1.2 mg/L. In addition, the figures for the “MIC Control Range” value in [5] and in [12] were 0.5 to 4.0 µg/mL and 8 to 64 µg/mL, respectively.

Take `Nc1[nH]c(=O)ncc1F` [Flucytosine]: the results for the MIC in series [2], in [3] and in [4] were 0.25 mg/L (≈ 1.94 µM), 0.063 mg/L (≈ 0.488 µM) and 3.67 mg/L (≈ 28.4 µM), respectively. The “MIC Control Range” value in series [5] is 0.06 to 0.25 µg/mL; in series [12] it was 4 to 16 µg/mL.

Consider `CN[C@H](CC(C)C)C(=O)N[C@H]1C(=O)N[C@@H](CC(N)=O)C(=O)N[C@H]2C(=O)N[C@H]3C(=O)N[C@H](C(=O)N[C@H](C(=O)O)c4cc(O)cc(O)c4-c4cc3ccc4O)[C@H](O)c3ccc(c(Cl)c3)Oc3cc2cc(c3O[C@@H]2O[C@H](CO)[C@@H](O)[C@H](O)[C@H]2O[C@H]2C[C@](C)(N)[C@H](O)[C@H](C)O2)Oc2ccc(cc2Cl)[C@H]1O` [Vancomycin], for which the MIC in series [13] stood at 0.7 mg/L (≈ 0.483 µM). Besides, the entries for the “MIC Control Range” value in series [14] and in series [15] were “Vancomycin (Control 0.06-0.5) mg/L” and “Vancomycin (Control 0.5-2.0) mg/L”, respectively.

Consider `CN(C)c1ccc(C(=C2C=CC(=[N+](C)C)C=C2)c2ccc(N(C)C)cc2)cc1` [Gentian Violet], for which the MIC in [6] stood at 1.02 mg/L; in series [7], 0.3 mg/L; in series [8], 0.2 mg/L; in [9] it was 0.3 mg/L; in series [10] it was 0.3 mg/L; in [11], 0.3 mg/L.

On to `C[C@@H]1[C@H](O)[C@@H](C)/C=C/C=C/CC/C=C/C=C/C=C/C=C/C(O[C@H]2O[C@H](C)[C@@H](O)[C@H](N)[C@@H]2O)CC2O[C@](O)(CC(O)C(O)CCC(O)CC(O)CC(O)CC(=O)O[C@H]1C)CC(O)C2C(=O)O` (stereo partly shown) [Nystatin], for which the “MIC (mg/L) Mean” value was 2.7 mg/L in series [6] (RPMI + 2% glucose); 4.8 mg/L in [7] (RPMI + 2% glucose); 2.7 mg/L in series [8] (RPMI + 2% glucose); 5.4 mg/L in series [9] (RPMI + 2% glucose); 2.2 mg/L in series [10] (RPMI + 2% glucose); 3.9 mg/L in [11] (RPMI + 2% glucose).

Consider `[Ag]` [silver], for which, in series [16], the “human elimination of silver from oral ingestion” value is on record as 90%. Also, the “total amount of silver required to cause argyria” value in series [17] was 3.8 to 6.4 g. In addition, the “safe lifetime continuous exposure” value in series [18] is on record as 5 micrograms/kg/day.

Turning to Silver citrate complex, the “MIC (mg/L) Mean” value came to 0.234 mg/L in [2] (CLSI M27, RPMI); 0.088 mg/L in [3] (CLSI M27, RPMI); 0.117 mg/L in series [4] (CLSI M27, RPMI).
